Measurements published in patent US11999713B2, “Methionine adenosyltransferase 2a (MAT2A) inhibitors and uses thereof” (Insilico Medicine IP Limited, priority 2021, dated 2024).

These compounds were tested against MAT2A (Homo sapiens, UniProt P31153) (assay: MAT2A Biochemical Assay). Details: 1 uM start, 3-fold dilution, 10 doses; Biomol Green, O.D.620; read-out: MAT2A enzymatic IC50.
Protocol: Example A: MAT2A Biochemical Assay
Compounds described herein were tested as follows:
(1). Prepared 1× Assay buffer.
(2). Preparation of compound concentration gradient: the compounds test condition were 1 uM start, 3-fold dilution, 10 doses, singlet or duplicate. 100× concentration compounds were prepared in 384-well plate. Then used Echo 550 to transfer 250 nl to a 384-reaction plate for later use. Added 250 nl of 100% DMSO to the negative and positive control wells.
(3). Prepared 1.67× final concentration enzyme solution with 1× Assay buffer.
(4). Added 15 μl of 1.67× Enzyme solution to the compound wells and positive control wells; added 15 μl of 1× Assay buffer to the negative control wells.
(5). Centrifuged at 1000 rpm for 30 seconds and incubate for 15 minutes.
(6). Prepared 2.5× final concentration Substrate mix solution with 1× Assay buffer.
(7). Added 10 μl of 2.5× final concentration Substrate mix solution to start the reaction.
(8). Centrifuged at 1000 rpm for 30 seconds and incubate for 150 minutes.
(9). Added 50 μl Biomol Green to stop the reaction, centrifuge at 1000 rpm for 30 seconds and incubate for 15 minutes, read O.D.620, process data.
(1) Using GraphPad Prism 5.
(2) % Inh=(Max signal−Compound signal)/(Max signal−Min signal)*100.
(3) Max signal was obtained from the positive control wells.
(4) Min signal was obtained from the negative control wells.

Sequence of MAT2A (P31153 whole entry, species assumed): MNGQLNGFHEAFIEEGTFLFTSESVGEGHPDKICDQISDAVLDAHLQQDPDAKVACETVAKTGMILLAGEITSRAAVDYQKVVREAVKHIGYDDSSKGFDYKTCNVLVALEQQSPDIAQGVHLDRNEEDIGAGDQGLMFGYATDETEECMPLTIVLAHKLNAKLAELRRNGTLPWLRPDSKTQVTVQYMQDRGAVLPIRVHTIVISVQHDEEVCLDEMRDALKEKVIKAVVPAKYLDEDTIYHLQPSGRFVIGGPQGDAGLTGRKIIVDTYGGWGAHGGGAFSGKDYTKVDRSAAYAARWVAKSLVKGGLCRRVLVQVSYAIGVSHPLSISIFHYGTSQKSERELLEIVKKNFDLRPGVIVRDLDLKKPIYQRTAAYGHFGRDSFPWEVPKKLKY

First: CN(C)CC#CCNc1nc(=O)n(-c2cccnc2)c2cc(Cl)ccc12 [Example 3, 7-chloro-4-((4-(dimethylamino)but-2-yn-1-yl)amino)-1-(pyridin-3-yl)quinazolin-2(1H)-one]
Second: C#CCOc1nc(=O)n(-c2cccnc2)c2cc(Cl)ccc12 [Example 9, 7-chloro-4-(prop-2-yn-1-yloxy)-1-(pyridin-3-yl)quinazolin-2(1H)-one]
The IC50 of the first is lower: 50 to 100 nM for the first, 100 to 500 nM for the second. The first is the more potent here.

C#CC1CCCN(c2nc(=O)n(-c3ccccc3Cl)c3cc(Cl)ccc23)C1 (stereo not drawn) [Example 11, 7-chloro-1-(2-chlorophenyl)-4-(3-ethynylpiperidin-1-yl)quinazolin-2(1H)-one] and C#CC1(O)CN(c2nc(=O)n(-c3ccccc3Cl)c3cc(Cl)ccc23)C1 [Example 12, 7-chloro-1-(2-chlorophenyl)-4-(3-ethynyl-3-hydroxyazetidin-1-yl)quinazolin-2(1H)-one] fall in the same range of IC50: 100 to 500 nM for the first, 100 to 500 nM for the second.

C#CCNc1nc(=O)n(-c2cnccn2)c2cc(C(F)(F)F)cc(F)c12 [Example 32, 5-fluoro-4-(prop-2-yn-1-ylamino)-1-(pyrazin-2-yl)-7-(trifluoromethyl)quinazolin-2(1H)-one] and C#CCNc1nc(=O)n(-c2cccnc2)c2cc(C(F)(F)F)cc(OC(F)F)c12 [Example 39, 5-(difluoromethoxy)-4-(prop-2-yn-1-ylamino)-1-(pyridin-3-yl)-7-(trifluoromethyl)quinazolin-2(1H)-one] fall in the same range of IC50: 50 to 100 nM for the first, 50 to 100 nM for the second.

C#CC1(Nc2nc(=O)n(-c3cccnc3C)c3cc(C(F)(F)F)cc(OC(F)F)c23)CC1 [Example 41, 5-(difluoromethoxy)-4-((1-ethynylcyclopropyl)amino)-1-(2-methylpyridin-3-yl)-7-(trifluoromethyl)quinazolin-2(1H)-one] and C=CC1(Nc2nc(=O)n(-c3cccnc3C)c3cc(C(F)(F)F)cc(OC)c23)CC1 [Example 78] fall in the same range of IC50: 50 to 100 nM for the first, 50 to 100 nM for the second.

Compared with C#CC1(Nc2nc(=O)n(-c3cccnc3C)c3nc(C(F)(F)F)cc(OC)c23)CC1 [Example 43, 4-((1-ethynylcyclopropyl)amino)-5-methoxy-1-(2-methylpyridin-3-yl)-7-(trifluoromethyl)pyrido[2,3-d]pyrimidin-2(1H)-one], C#CC1(Nc2nc(=O)n(-c3cccnc3)c3cc(C(F)(F)F)ncc23)CC1 [Example 60, 4-((1-ethynylcyclopropyl)amino)-1-(pyridin-3-yl)-7-(trifluoromethyl)pyrido[4,3-d]pyrimidin-2(1H)-one] is higher in IC50: 50 to 100 nM for the first, 100 to 500 nM for the second.

C#CCNc1nc(=O)n(-c2cc(C)cnc2C)c2cc(C(F)(F)F)ccc12 [Example 44, 1-(2,5-dimethylpyridin-3-yl)-4-(prop-2-yn-1-ylamino)-7-(trifluoromethyl)quinazolin-2(1H)-one] and C#CCNc1nc(=O)n(-c2cnn(C)c2)c2cc(C(F)(F)F)ccc12 [Example 72, 1-(1-methyl-1H-pyrazol-4-yl)-4-(prop-2-yn-1-ylamino)-7-(trifluoromethyl)quinazolin-2(1H)-one] fall in the same range of IC50: 100 to 500 nM for the first, 100 to 500 nM for the second.

First: C#CCNc1nc(=O)n(-c2cccnc2)c2cc(C(F)(F)F)cnc12 [Example 55, 4-(prop-2-yn-1-ylamino)-1-(pyridin-3-yl)-7-(trifluoromethyl)pyrido[3,2-d]pyrimidin-2(1H)-one]
Second: C#CCNc1nc(=O)n(-c2cccnc2)c2cc(C(F)(F)F)ncc12 [Example 58, 4-(prop-2-yn-1-ylamino)-1-(pyridin-3-yl)-7-(trifluoromethyl)pyrido[4,3-d]pyrimidin-2(1H)-one]
The IC50 of the first is higher: 500 to 1000 nM for the first, 100 to 500 nM for the second.

First: C#CC(C)Nc1nc(=O)n(-c2cccnc2)c2cc(C(F)(F)F)ncc12 (stereo not drawn) [Example 59, 4-(but-3-yn-2-ylamino)-1-(pyridin-3-yl)-7-(trifluoromethyl)pyrido[4,3-d]pyrimidin-2(1H)-one]
Second: C#CC1(Nc2nc(=O)n(-c3cccnc3)c3nc(C(F)(F)F)ncc23)CC1 [Example 62, 4-((1-ethynylcyclopropyl)amino)-1-(pyridin-3-yl)-7-(trifluoromethyl)pyrimido[4,5-d]pyrimidin-2(1H)-one]
The IC50 of the first is higher: 100 to 500 nM for the first, 50 to 100 nM for the second.

C#CCNc1nc(=O)n(-c2cncnc2)c2cc(Cl)ccc12 [Example 71, 7-chloro-4-(prop-2-yn-1-ylamino)-1-(pyrimidin-5-yl)quinazolin-2(1H)-one] and NC/C=C/CNc1nc(=O)n(-c2cccnc2)c2cc(C(F)(F)F)ccc12 [Example 79, (E)-4-((4-aminobut-2-en-1-yl)amino)-1-(pyridin-3-yl)-7-(trifluoromethyl)quinazolin-2(1H)-one] fall in the same range of IC50: 100 to 500 nM for the first, 100 to 500 nM for the second.
